Key:
Format in all cases: in vivo
[1] = test system: corn (Zea mays); experiment: Test A pre-/postemergence: corn
Method in brief: (§1)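 Soil medium was loam blended with sand; treatments pre- and postemergence were applied concurrently, postemergence at one- to two-leaf stage. Approximately ten days in greenhouse preceded visual comparison with untreated controls, scored 0 (no effect) to 100 (complete control).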

[2] = test system: crabgrass, large (large crabgrass, Digitaria sanguinalis); experiment: Test A pre-/postemergence: crabgrass, large
Method in brief: as §1

[3] = test system: rice (Oryza sativa); experiment: Test B flooded paddy: rice; conditions: Flood; 250 g ai/ha; applied to paddy water at 2-leaf stage; visually evaluated after 13 to 15 days
Method in brief: (§2)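 Greenhouse assay lasting 13 to 15 days. Treatment was into water flooding pots 3 cm deep, at the 2-leaf stage, with that level sustained afterwards. Scores compare treated with control plants visually, 100 denoting complete control and 0 no effect; a dash marks no test result.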

[4] = test system: morningglory (Ipomoea spp.); experiment: Test A pre-/postemergence: morningglory
Method in brief: as §1

[5] = test system: velvetleaf (Abutilon theophrasti); experiment: Test A pre-/postemergence: velvetleaf
Method in brief: as §1

[6] = test system: pigweed (Amaranthus retroflexus); experiment: Test A pre-/postemergence: pigweed
Method in brief: as §1

[7] = test system: barnyardgrass (Echinochloa crus-galli); experiment: Test A pre-/postemergence: barnyardgrass
Method in brief: as §1

[8] = test system: barnyardgrass (Echinochloa crus-galli); experiment: Test B flooded paddy: barnyardgrass; conditions: Flood; 250 g ai/ha; applied to paddy water at 2-leaf stage; visually evaluated after 13 to 15 days
Method in brief: as §2

[9] = test system: ducksalad (Heteranthera limosa); experiment: Test B flooded paddy: ducksalad; conditions: Flood; 250 g ai/ha; applied to paddy water at 2-leaf stage; visually evaluated after 13 to 15 days
Method in brief: as §2

[10] = test system: foxtail, giant (giant foxtail, Setaria faberii); experiment: Test A pre-/postemergence: foxtail, giant
Method in brief: as §1

[11] = test system: sedge, umbrella (small-flower umbrella sedge Cyperus difformis); experiment: Test B flooded paddy: sedge, umbrella; conditions: Flood; 250 g ai/ha; applied to paddy water at 2-leaf stage; visually evaluated after 13 to 15 days
Method in brief: as §2

[12] = test system: wheat (Triticum aestivum); experiment: Test A pre-/postemergence: wheat
Method in brief: as §1

[13] = Postemergence, 125 g ai/ha, 0 to 100 scale, 0 is no effect, 100 is complete control
[14] = Postemergence, 500 g ai/ha, 0 to 100 scale, 0 is no effect, 100 is complete control
[15] = Preemergence, 125 g ai/ha, 0 to 100 scale where 0 is no effect and 100 is complete control
[16] = Preemergence, 500 g ai/ha, 0 to 100 scale (0 no effect, 100 complete control)

Cc1nn(-c2ccc(C(F)(F)F)cn2)nc1C(=NO)c1cccc(C(F)(F)F)c1 [Compound 201]
Plant response rating, Corn [1, 13]: 10 | Corn plant response rating [1, 14]: 20 | Plant response rating, Corn [1, 15]: 0 | Plant response rating, Corn [1, 16]: 0 | Plant response rating, Crabgrass, Large [2, 13]: 20 | Crabgrass, Large plant response rating [2, 14]: 30 | Plant response rating, Crabgrass, Large [2, 15]: 0 | Plant response rating, Crabgrass, Large [2, 16]: 20 | Plant response rating, Rice (0 to 100 scale, 0 is no effect, 100 is complete control) [3]: 0 | Plant response rating, Morningglory [4, 13]: 10 | Morningglory plant response rating [4, 14]: 50 | Plant response rating, Morningglory [4, 15]: 0 | Plant response rating, Morningglory [4, 16]: 0 | Plant response rating, Velvetleaf [5, 13]: 20 | Velvetleaf plant response rating [5, 14]: 40 | Plant response rating, Velvetleaf [5, 15]: 0 | Plant response rating, Velvetleaf [5, 16]: 0 | Plant response rating, Pigweed [6, 13]: 60 | Pigweed plant response rating [6, 14]: 100 | Plant response rating, Pigweed [6, 15]: 0 | Plant response rating, Pigweed [6, 16]: 10 | Plant response rating, Barnyardgrass [7, 13]: 0 | Barnyardgrass plant response rating [7, 14]: 10 | Plant response rating, Barnyardgrass [7, 15]: 0 | Plant response rating, Barnyardgrass [7, 16]: 0 | Plant response rating, Barnyardgrass (0 to 100 scale, 0 is no effect, 100 is complete control) [8]: 0 | Plant response rating, Ducksalad (0 to 100 scale, 0 is no effect, 100 is complete control) [9]: 0 | Plant response rating, Foxtail, Giant [10, 13]: 0 | Foxtail, Giant plant response rating [10, 14]: 10 | Plant response rating, Foxtail, Giant [10, 15]: 0 | Plant response rating, Foxtail, Giant [10, 16]: 20 | Plant response rating, Sedge, Umbrella (0 to 100 scale, 0 is no effect, 100 is complete control) [11]: 0 | Plant response rating, Wheat [12, 13]: 0 | Wheat plant response rating [12, 14]: 10 | Plant response rating, Wheat [12, 15]: 0 | Plant response rating, Wheat [12, 16]: 0

Source: patent US9302999B2, “Substituted triazoles as herbicides” (E. I. DU PONT DE NEMOURS AND COMPANY, priority 2012, dated 2016)
